Test results: patent publication US8207137B2, “Method of inhibiting angiogenesis or invasion or formation of metastases” (INSERM, priority 2001, dated 2012)

Assays:
CPAE = assay: Cell proliferation, tritiated thymidine incorporation; assay type: cell-based, Bovine
Protocol: (§1) The cells were cultured at the rate of 20,000 cells per well (96-well plate, Greiner) in the complete medium. After 24 h, the cells were cultured in a medium containing a concentration lower by half than that corresponding to the complete medium to induce the cell in phase G0/G1 of proliferation for 24 supplementary hours. The cells were then cultured for 30 h with complete medium in the presence or without the presence of AMEP. Tritiated thymidine (1 μCi per well) was then added to the cells and incubated for 18 hours. Incorporation of the tritiated thymidine by the cells was quantified by filter paper according to the protocol described for the use of a Skatron (Skatron, Lier, Norway). Radioactivity was then determined by counting after addition of scintillation liquid. The results were expressed as a percentage in relation to the control.

B16F10 = assay: as above; assay type: cell-based, murine; conditions: B16F10 cancer cells, mean±SEM
Protocol: as §1

MDA MB 231 cells = assay: Athymic murine model of tumor growth; assay type: in vivo; conditions: nude mice, MDA MB 231 tumors; AMEP expressed in muscle after gene electrotransfer, doxycycline induction; after 14 days of treatment
Description: The cDNA of AMEP was subcloned at the Eco RV site of the vector pBi (Clonetech, Palo Alto, Calif., USA). The expression of the gene of interest in this vector was under the dependence of a promoter responding to tetracycline in an expression system involving the eukaryote gene Tet-On. The Tet-On vector expresses the transactivator rtTA (reverse tetracycline transcriptional activator) and the vector Tet-tTS expresses the silencer tTS (tetracycline transcriptional silencer). The purifications of the plasmids were performed in a manner such that no endotoxin was present (Maxi endo free Kit, Quiagen). The purified plasmid DNA was dissolved in endotoxin-free sterile 0.9% NaCl at the desired concentration.
20 μg of plasmid pBi-AMEP, 10 μg of plasmid Tet-off and 20 μg of plasmid Tet-on were dissolved in 30 μl of sterile 0.9% NaCl and injected into the tibia cranial muscle of nude or C57B1/6 mice aged 8 weeks and previously anesthetized by intraperitoneal inoculation of pentobarbital as described by Mir et al. (Mir et al., 1999). […]
The MDA-MB-231 cells, which had been previously cultured to 80% confluence, were detached, washed and resuspended in PBS at the rate of 20·10^6 cells/ml. […] The size of the tumors was monitored for 14 days after induction.

For “AMEP: disintegrin domain of human metargidin (Met-420 to Glu-511, SEQ ID NO. 2), 91 amino acids, 9.7 kDa; recombinant or expressed in vivo by gene electrotransfer”, the “inhibition of proliferation of endothelial cells” value (“inhibition … of endothelial cells” for short) (CPAE; 2 μg/ml) was 40%, the “inhibition … of endothelial cells” value (CPAE; 5 μg/ml (maximal effect)) was 60% and the “inhibition … of endothelial cells” value (CPAE; 10 μg/ml, compared with 60% at 5 μg/ml) was “identical percentage”. The “% inhibition of cell proliferation by AMEP (5 μg/ml)” value (CPAE; bovine endothelial cells, 5 μg/ml, mean±SEM) was 60.4 ± 3.2%, the “% inhibition of cell proliferation by AMEP (5 μg/ml)” value (B16F10) was 74.3 ± 7.0% and the “inhibition of tumor volume” value (MDA MB 231 cells) was 78%.
